The term % Inhibition denotes the share of the control response that was lost under treatment. A low value points to a weak effect. The IC50 is the point on the concentration scale where inhibition reaches its midpoint.

From patent US7595401B2, “Therapeutic compounds and their use in cancer” (Myriad Pharmaceuticals, Inc., priority 2006, dated 2009) come the findings set out here.

Structures are written as SMILES.

The subject of the first assay is purified human Hsp90. The experiment in a line: Binding Assay: fluorescence polarization with BODIPY-labeled geldanamycin. To be noted: 5 μM compound, BODIPY-GM 10 nM, Hsp90 30 nM. An outline of the steps:
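Compounds in 2% DMSO final compete with 10 nM BODIPY-GM for 30 nM purified human Hsp90, incubated overnight at room temperature in pH 7.3 HEPES buffer containing Na2MoO4 and DTT. Polarization (mP, ex/em 485/530) normalized to DMSO gives percent inhibition; autofluorescence-confounded data excluded.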
A general note: Polarisation of emitted light reports the rotation of a fluorescent probe.
On to `Nc1ncn(CCC(N)C2CC2)c2nc(Sc3cc4c(cc3Br)OCO4)nc1-2` (stereo not shown) [Example 688, 3-(3-Amino-3-cyclopropylpropyl)-8-[(6-bromo-1,3-benzodioxol-5-yl)thio]-3H-purin-6-amine], for which the “% Inhibition at 5 μM Compound Concentration” value amounted to 30%.
The same measure, in the same setting: under `CC(C)[C@H](NC(=O)OC(C)(C)C)C(=O)N1CCCC(CCn2cnc(N)c3nc(Sc4cc5c(cc4Br)OCO5)nc2-3)C1` (stereo partly drawn) [Example 698, tert-Butyl((1S)-1-{[3-(2-{6-amino-8-[(6-bromo-1,3-benzodioxol-5-yl)thio]-3H-purin-3-yl}ethyl)piperidin-1-yl]carbonyl}-2-methylpropyl)carbamate] stands 55%; under `CO[C@H](C)C(=O)N1CCC(CCn2cnc(N)c3nc(Sc4cc5c(cc4Br)OCO5)nc2-3)CC1` [Example 726, 8-[(6-Bromo-1,3-benzodioxol-5-yl)thio]-3-(2-{1-[(2R)-2-methoxypropanoyl]piperidin-4-yl}ethyl)-3 H-purin-6-amine], 26%.

Staying with this assay, now noted: BODIPY-GM 10 nM, Hsp90 30 nM.
With `Nc1ncnc2c1nc(Sc1cc3c(cc1Br)OCO3)n2CCC(N)C1CC1` (stereo not shown) [Example 687, 9-(3-Amino-3-cyclopropylpropyl)-8-[(6-bromo-1,3-benzodioxol-5-yl)thio]-9H-purin-6-amine], the IC50 worked out at 80 nM.
Still for that read-out and setting: under `Nc1ncnc2c1nc(Sc1cc3c(cc1Br)OCO3)n2CCC(N)C1CCSCC1` (stereo not shown) [Example 689, 9-[3-Amino-3-(tetrahydro-2H-thiopyran-4-yl)propyl]-8-[(6-bromo-1,3-benzodioxol-5-yl)thio]-9H-purin-6-amine] stands 120 nM; under `Nc1ncnc2c1nc(Sc1cc3c(cc1Br)OCO3)n2CCC(N)C1CCCCC1` (stereo not shown) [Example 690, 9-(3-Amino-3-cyclohexylpropyl)-8-[(6-bromo-1,3-benzodioxol-5-yl)thio]-9H-purin-6-amine], 290 nM.
The compound `Nc1ncnc2c1nc(Sc1cc3c(cc1Br)OCO3)n2CCC(N)C1CCCC1` (stereo not shown) [Example 691, 9-(3-Amino-3-cyclopentyl-propyl)-8-(6-bromo-benzo[1,3]dioxol-5-ylsulfanyl)-9H-purin-6-ylamine] showed a half-inhibitory concentration (IC50) of 125 nM.
On the same count and under the same terms, under `Nc1ncnc2c1nc(Sc1cc3c(cc1Br)OCO3)n2CCC(N)C1CCOCC1` (stereo not shown) [Example 692, 9-[3-Amino-3-(tetrahydro-pyran-4-yl)-propyl]-8-(6-bromo-benzo[1,3]dioxol-5-ylsulfanyl)-9H-purin-6-ylamine] stands 2000 nM; under `C[C@H](NC(=O)OC(C)(C)C)C(=O)N1CCC(CCn2c(Sc3cc4c(cc3Br)OCO4)nc3c(N)ncnc32)CC1` [Example 693, [(S)-2-(4-{2-[6-Amino-8-(6-bromo-benzo[1,3]dioxol-5-ylsulfanyl) -purin-9-yl]-ethyl}-piperidin-1-yl)-1-methyl-2-oxo-ethyl]-carbamic acid tert-butyl ester], 59 nM.
In the case of `C[C@@H](NC(=O)OC(C)(C)C)C(=O)N1CCC(CCn2c(Sc3cc4c(cc3Br)OCO4)nc3c(N)ncnc32)CC1` [Example 695, tert-Butyl{(1R)-2-[4-(2-{6-amino-8-[(6-bromo-1,3-benzodioxol-5-yl)thio]-9H-purin-9-yl}ethyl)piperidin-l-yl]-1-methyl-2-oxoethyl}carbamate], the IC50 amounted to 410 nM.
Same read-out and setting: under `CC(C)[C@H](NC(=O)OC(C)(C)C)C(=O)N1CCCC(CCn2c(Sc3cc4c(cc3Br)OCO4)nc3c(N)ncnc32)C1` (stereo partly drawn) [Example 697, tert-Butyl((1S)-1-{[3-(2-{6-amino-8-[(6-bromo-1,3-benzodioxol-5-yl)thio]-9H-purin-9-yl}ethyl)piperidin-1-yl]carbonyl}-2-methylpropyl)-carbamate] stands 600 nM; under `CC(C)C[C@H](NC(=O)OC(C)(C)C)C(=O)N1CCC(CCn2c(Sc3cc4c(cc3Br)OCO4)nc3c(N)ncnc32)CC1` [Example 699, tert-Butyl((1S)-1-{[4-(2-{6-amino-8-[(6-bromo-1,3-benzodioxol-5-yl)thio]-9H-purin-9-yl}ethyl)piperidin-1-yl]carbonyl}-3-methylbutyl)carbamate], 600 nM; under `C[C@@H](NC(=O)OC(C)(C)C)C(=O)N1CCCC(CCn2c(Sc3cc4c(cc3Br)OCO4)nc3c(N)ncnc32)C1` (stereo partly drawn) [Example 701, tert-Butyl{(1R)-2-[3-(2-{6-amino-8-[(6-bromo-1,3-benzodioxol-5-yl)thio]-9H-purin-9-yl}ethyl)piperidin-1-yl]-1-methyl-2-oxoethyl}carbamate], 200 nM.
In turn, `C[C@H](NC(=O)OC(C)(C)C)C(=O)N1CCCC(CCn2c(Sc3cc4c(cc3Br)OCO4)nc3c(N)ncnc32)C1` (stereo partly drawn) [Example 703, tert-Butyl{(1S)-2-[3-(2-{6-amino-8-[(6-bromo-1,3-benzodioxol-5-yl)thio]-9H-purin-9-yl}ethyl)piperidin-1-yl]-1-methyl-2-oxoethyl}carbamate] came in with an IC50 of 190 nM.
Take `CC(C)(C)OC(=O)NCC(=O)N1CCC(CCn2c(Sc3cc4c(cc3Br)OCO4)nc3c(N)ncnc32)CC1` [Example 705, tert-Butyl{2-[4-(2-{6-amino-8-[(6-bromo-1,3-benzodioxol-5-yl)thio]-9H-purin-9-yl}ethyl)piperidin-1-yl]-2-oxoethyl}carbamate]: the IC50 amounted to 80 nM.
Same read-out and setting: the value for `CN(C)CC(=O)N1CCC(CCn2c(Sc3cc4c(cc3Br)OCO4)nc3c(N)ncnc32)CC1` [Example 707, 8-[(6-Bromo-1,3-benzodioxol-5-yl)thio]-9-(2-{1-[(dimethylamino)acetyl]piperidin-4-yl}ethyl)-9H-purin-6-amine] was 70 nM; that for `CC(C)(C)OC(=O)NC1(C(=O)N2CCC(CCn3c(Sc4cc5c(cc4Br)OCO5)nc4c(N)ncnc43)CC2)CC1` [Example 709, tert-Butyl(1-{[4-(2-{6-amino-8-[(6-bromo-1,3-benzodioxol-5-yl)thio]-9H-purin-9-yl}ethyl)piperidin-1-yl]carbonyl}cyclopropyl)carbamate] was 230 nM; that for `CC(C)(C)OC(=O)NC(C)(C)C(=O)N1CCC(CCn2c(Sc3cc4c(cc3Br)OCO4)nc3c(N)ncnc32)CC1` [Example 711] was 600 nM.
Same read-out and setting: under `CC(C)[C@H](NC(=O)OC(C)(C)C)C(=O)N1CCC(CCn2c(Sc3cc4c(cc3Br)OCO4)nc3c(N)ncnc32)CC1` [Example 713, tert-Butyl((1S)-1-{[4-(2-{6-amino-8-[(6-bromo-1,3-benzodioxol-5-yl)thio]-9H-purin-9-yl}ethyl)piperidin-1-yl]carbonyl}-2-methylpropyl)carbamate] stands 495 nM.
Still for that read-out and setting: the value for `C[C@@H](C(=O)N1CCC(CCn2c(Sc3cc4c(cc3Br)OCO4)nc3c(N)ncnc32)CC1)N(C)C(=O)OC(C)(C)C` [Example 715, tert-Butyl{(1S)-2-[4-(2-{6-amino-8-[(6-bromo-1,3-benzodioxol-5-yl)thio]-9H-purin-9-yl}ethyl)piperidin-1-yl]-1-methyl-2-oxoethyl}methylcarbamate] was above 2000 nM; that for `C[C@H](C(=O)N1CCC(CCn2c(Sc3cc4c(cc3Br)OCO4)nc3c(N)ncnc32)CC1)N(C)C(=O)OC(C)(C)C` [Example 717, tert-Butyl{(1R)-2-[4-(2-{6-amino-8-[(6-bromo-1,3-benzodioxol-5-yl)thio]-9H-purin-9-yl}ethyl)piperidin-1-yl]-1-methyl-2-oxoethyl}methylcarbamate] was 200 nM.
With `CC(C)C[C@H](NC(=O)OC(C)(C)C)C(=O)N1CCCC(CCn2c(Sc3cc4c(cc3Br)OCO4)nc3c(N)ncnc32)C1` (stereo partly drawn) [Example 719, tert-Butyl((1S)-1-{[3-(2-{6-amino-8-[(6-bromo-1,3-benzodioxol-5-yl)thio]-9H-purin-9-yl}ethyl)piperidin-1-yl]carbonyl}-3-methylbutyl)carbamate], the IC50 is 800 nM.
The compound `COCC(=O)N1CCC(CCn2c(Sc3cc4c(cc3Br)OCO4)nc3c(N)ncnc32)CC1` [Example 722, 8-[(6-Bromo-1,3-benzodioxol-5-yl)thio]-9-{2-[1-(methoxyacetyl)piperidin-4-yl]ethyl}-9H-purin-6-amine] returned an IC50 of 130 nM.
On the same count and under the same terms, the value for `CO[C@@H](C)C(=O)N1CCC(CCn2c(Sc3cc4c(cc3Br)OCO4)nc3c(N)ncnc32)CC1` [Example 724, 8-[(6-Bromo-1,3-benzodioxol-5-yl)thio]-9-(2-{1-[(2S)-2-methoxypropanoyl]piperidin-4-yl}ethyl)-9H-purin-6-amine] was 105 nM; that for `CO[C@H](C)C(=O)N1CCC(CCn2c(Sc3cc4c(cc3Br)OCO4)nc3c(N)ncnc32)CC1` [Example 725, 8-[(6-Bromo-1,3-benzodioxol-5-yl)thio]-9-(2-{1-[(2R)-2-methoxypropanoyl]piperidin-4-yl}ethyl)-9H-purin-6-amine] was 100 nM.
Still for that read-out and setting: the value for `CO[C@@H](C)C(=O)N1CCC(CCn2cnc(N)c3nc(Sc4cc5c(cc4Br)OCO5)nc2-3)CC1` [Example 727, 8-[(6-Bromo-1,3-benzodioxol-5-yl)thio]-3-(2-{1-[(2S)-2-methoxypropanoyl]piperidin-4-yl}ethyl)-3 H-purin-6-amine] was 32000 nM; that for `CC(C)(C)OC(=O)N1CC[C@H]1C(=O)N1CCC(CCn2c(Sc3cc4c(cc3Br)OCO4)nc3c(N)ncnc32)CC1` [Example 728, tert-Butyl(2S)-2-{[4-(2-{6-amino-8-[(6-bromo-1,3-benzodioxol-5-yl)thio]-9H-purin-9-yl}ethyl)piperidin-1-yl]carbonyl}azetidine-1-carboxylate] was 200 nM.
The same measure, in the same setting: under `CC(C)(C)OC(=O)N1CCC[C@H]1C(=O)N1CCC(CCn2c(Sc3cc4c(cc3Br)OCO4)nc3c(N)ncnc32)CC1` [Example 730, tert-Butyl(2S)-2-{[4-(2-{6-amino-8-[(6-bromo-1,3-benzodioxol-5-yl)thio]-9H-purin-9-yl}ethyl)piperidin-1-yl]carbonyl}pyrrolidine-1-carboxylate] stands above 5000 nM.
